According to the kinase profiling compilation of Christmann-Franck et al. (2016):

Columns and labels:
Assay in all cases: KINOMEscan competition binding
Conditions in all cases: compound 10.0 µM
BMPR1A (human) = BMPR1A (human) (UniProt P36894)
NUAK1 (human) = NUAK1 (human) (UniProt O60285)
DMPK (human) = DMPK (human) (UniProt Q09013)
AURKB (human) = AURKB (human) (UniProt Q96GD4)
ERBB3 (human) = ERBB3 (human) (UniProt P21860)
CDK5 (human) = CDK5 (human) (UniProt Q00535)
LATS2 (human) = LATS2 (human) (UniProt Q9NRM7)
[1] = target: JAK1 JH1 catalytic (human) (UniProt P23458)
SIK1 (human) = SIK1 (human) (UniProt P57059)
INSR (human) = INSR (human) (UniProt P06213)
FGFR1 (human) = FGFR1 (human) (UniProt P11362)
RIPK4 (human) = RIPK4 (human) (UniProt P57078)
MST4 (human) = MST4 (human) (UniProt Q9P289)
PLK4 (human) = PLK4 (human) (UniProt O00444)
GAK (human) = GAK (human) (UniProt O14976)
SGK3 (human) = SGK3 (human) (UniProt Q96BR1)
PRKCE (human) = PRKCE (human) (UniProt Q02156)
PAK4 (human) = PAK4 (human) (UniProt O96013)
GSK3B (human) = GSK3B (human) (UniProt P49841)
CAMKK2 (human) = CAMKK2 (human) (UniProt Q96RR4)
ACVR1 (human) = ACVR1 (human) (UniProt Q04771)
PRKD3 (human) = PRKD3 (human) (UniProt O94806)
PRKCH (human) = PRKCH (human) (UniProt P24723)
MAP3K1 (human) = MAP3K1 (human) (UniProt Q13233)
PIM1 (human) = PIM1 (human) (UniProt P11309)
ACVR1B (human) = ACVR1B (human) (UniProt P36896)
MAP3K5 (human) = MAP3K5 (human) (UniProt Q99683)
AKT2 (human) = AKT2 (human) (UniProt P31751)
ALK (human) = ALK (human) (UniProt Q9UM73)
PAK3 (human) = PAK3 (human) (UniProt O75914)
CHUK (human) = CHUK (human) (UniProt O15111)
DYRK1A (human) = DYRK1A (human) (UniProt Q13627)
ACVR2A (human) = ACVR2A (human) (UniProt P27037)
RPS6KA2 KD1 (human) = RPS6KA2 KD1 (human) (UniProt Q15349)
TNIK (human) = TNIK (human) (UniProt Q9UKE5)
HIPK3 (human) = HIPK3 (human) (UniProt Q9H422)
PLK3 (human) = PLK3 (human) (UniProt Q9H4B4)

Sequence of LATS2 (human) (Q9NRM7 whole entry, looked up): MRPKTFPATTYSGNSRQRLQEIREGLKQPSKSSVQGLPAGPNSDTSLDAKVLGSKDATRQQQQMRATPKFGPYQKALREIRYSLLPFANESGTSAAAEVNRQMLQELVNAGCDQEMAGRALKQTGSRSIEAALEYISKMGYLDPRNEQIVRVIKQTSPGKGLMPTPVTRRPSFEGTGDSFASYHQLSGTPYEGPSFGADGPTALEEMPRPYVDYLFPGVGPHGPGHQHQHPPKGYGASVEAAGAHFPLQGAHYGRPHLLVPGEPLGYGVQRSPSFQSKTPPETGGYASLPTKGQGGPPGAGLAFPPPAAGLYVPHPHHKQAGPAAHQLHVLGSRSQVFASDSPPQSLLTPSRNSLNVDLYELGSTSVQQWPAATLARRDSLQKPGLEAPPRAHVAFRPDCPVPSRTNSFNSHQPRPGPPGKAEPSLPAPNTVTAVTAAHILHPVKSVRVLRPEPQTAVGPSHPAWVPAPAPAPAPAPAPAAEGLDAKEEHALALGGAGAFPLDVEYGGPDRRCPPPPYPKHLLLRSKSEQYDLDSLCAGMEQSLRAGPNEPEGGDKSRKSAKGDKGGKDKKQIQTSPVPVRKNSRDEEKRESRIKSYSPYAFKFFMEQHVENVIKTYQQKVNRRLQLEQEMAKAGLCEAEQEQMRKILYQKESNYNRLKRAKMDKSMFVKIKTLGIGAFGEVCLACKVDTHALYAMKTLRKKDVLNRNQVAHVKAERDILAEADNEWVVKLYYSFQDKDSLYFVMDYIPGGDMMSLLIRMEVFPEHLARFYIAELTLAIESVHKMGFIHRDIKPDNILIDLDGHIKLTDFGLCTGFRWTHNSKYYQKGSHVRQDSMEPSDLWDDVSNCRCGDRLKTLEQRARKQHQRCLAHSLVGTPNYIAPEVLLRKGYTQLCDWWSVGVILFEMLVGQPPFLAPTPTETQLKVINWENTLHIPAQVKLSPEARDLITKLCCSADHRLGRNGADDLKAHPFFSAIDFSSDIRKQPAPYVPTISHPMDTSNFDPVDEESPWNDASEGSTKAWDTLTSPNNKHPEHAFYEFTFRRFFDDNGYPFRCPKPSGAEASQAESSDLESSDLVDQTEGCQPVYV
Sequence of SGK3 (human) (Q96BR1 whole entry, looked up): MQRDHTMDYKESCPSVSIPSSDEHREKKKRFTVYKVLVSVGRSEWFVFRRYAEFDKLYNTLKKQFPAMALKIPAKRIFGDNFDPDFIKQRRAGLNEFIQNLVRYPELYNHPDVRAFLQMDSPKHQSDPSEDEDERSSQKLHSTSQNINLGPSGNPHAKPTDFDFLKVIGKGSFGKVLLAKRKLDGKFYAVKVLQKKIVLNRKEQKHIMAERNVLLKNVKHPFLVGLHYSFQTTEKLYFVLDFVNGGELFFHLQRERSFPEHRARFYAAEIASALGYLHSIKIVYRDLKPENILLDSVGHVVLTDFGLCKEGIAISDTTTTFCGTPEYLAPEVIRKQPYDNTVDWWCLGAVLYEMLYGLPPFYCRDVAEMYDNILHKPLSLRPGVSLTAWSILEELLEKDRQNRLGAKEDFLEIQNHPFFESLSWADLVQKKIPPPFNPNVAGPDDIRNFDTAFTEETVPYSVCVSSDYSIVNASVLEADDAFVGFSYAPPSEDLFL
Sequence of CDK5 (human) (Q00535 whole entry, looked up): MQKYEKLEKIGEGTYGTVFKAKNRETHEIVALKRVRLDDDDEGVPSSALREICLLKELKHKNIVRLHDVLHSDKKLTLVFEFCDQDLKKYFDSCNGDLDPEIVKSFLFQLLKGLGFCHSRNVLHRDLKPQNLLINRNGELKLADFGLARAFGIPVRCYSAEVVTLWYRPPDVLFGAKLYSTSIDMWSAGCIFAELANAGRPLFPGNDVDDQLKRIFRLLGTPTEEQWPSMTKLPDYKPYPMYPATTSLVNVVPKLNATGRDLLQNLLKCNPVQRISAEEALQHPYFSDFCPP
Sequence of INSR (human) (P06213 whole entry, looked up): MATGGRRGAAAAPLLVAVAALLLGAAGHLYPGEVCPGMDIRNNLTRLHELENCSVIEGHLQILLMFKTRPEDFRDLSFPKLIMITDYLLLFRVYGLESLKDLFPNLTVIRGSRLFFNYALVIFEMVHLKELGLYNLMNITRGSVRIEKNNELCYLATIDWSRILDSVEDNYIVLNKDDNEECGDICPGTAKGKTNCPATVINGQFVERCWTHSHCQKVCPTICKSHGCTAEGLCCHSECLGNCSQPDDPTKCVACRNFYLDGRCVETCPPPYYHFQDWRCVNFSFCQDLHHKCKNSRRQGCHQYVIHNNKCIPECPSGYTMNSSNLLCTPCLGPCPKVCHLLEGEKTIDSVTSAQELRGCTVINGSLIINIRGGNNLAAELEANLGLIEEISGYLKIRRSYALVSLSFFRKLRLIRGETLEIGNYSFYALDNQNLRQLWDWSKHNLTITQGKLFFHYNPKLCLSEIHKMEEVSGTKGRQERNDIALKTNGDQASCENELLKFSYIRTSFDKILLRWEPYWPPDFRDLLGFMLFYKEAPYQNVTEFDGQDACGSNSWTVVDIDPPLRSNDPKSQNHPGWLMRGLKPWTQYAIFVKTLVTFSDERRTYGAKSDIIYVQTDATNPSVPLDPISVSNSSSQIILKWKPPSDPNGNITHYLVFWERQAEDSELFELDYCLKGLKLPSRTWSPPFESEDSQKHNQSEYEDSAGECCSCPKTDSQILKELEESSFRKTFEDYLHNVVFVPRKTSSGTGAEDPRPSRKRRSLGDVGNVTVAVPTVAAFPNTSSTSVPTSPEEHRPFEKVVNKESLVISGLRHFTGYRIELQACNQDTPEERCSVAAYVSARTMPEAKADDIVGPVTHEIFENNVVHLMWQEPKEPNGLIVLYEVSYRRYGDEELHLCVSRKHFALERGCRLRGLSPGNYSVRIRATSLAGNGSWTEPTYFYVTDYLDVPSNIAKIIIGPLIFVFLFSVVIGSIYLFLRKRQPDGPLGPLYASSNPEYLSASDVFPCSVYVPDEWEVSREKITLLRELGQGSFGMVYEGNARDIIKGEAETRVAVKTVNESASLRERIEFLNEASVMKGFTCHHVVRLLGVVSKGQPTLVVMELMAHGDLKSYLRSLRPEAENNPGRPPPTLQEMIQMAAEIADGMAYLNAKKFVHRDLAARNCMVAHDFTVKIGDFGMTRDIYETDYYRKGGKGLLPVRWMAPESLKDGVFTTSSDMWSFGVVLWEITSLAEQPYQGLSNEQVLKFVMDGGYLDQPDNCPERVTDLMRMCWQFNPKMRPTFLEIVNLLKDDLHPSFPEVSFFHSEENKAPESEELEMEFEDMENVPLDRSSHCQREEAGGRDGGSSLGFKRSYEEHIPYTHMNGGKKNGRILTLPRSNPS
Sequence of PIM1 (human) (P11309 whole entry, looked up): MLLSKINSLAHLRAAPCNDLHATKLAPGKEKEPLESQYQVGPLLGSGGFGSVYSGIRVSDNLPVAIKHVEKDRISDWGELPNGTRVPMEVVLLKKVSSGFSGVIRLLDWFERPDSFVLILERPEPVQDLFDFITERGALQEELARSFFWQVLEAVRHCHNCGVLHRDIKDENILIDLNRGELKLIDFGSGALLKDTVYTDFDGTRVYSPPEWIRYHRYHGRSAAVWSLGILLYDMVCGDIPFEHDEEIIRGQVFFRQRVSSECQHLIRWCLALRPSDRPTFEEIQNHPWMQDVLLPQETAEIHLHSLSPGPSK
Sequence of PAK4 (human) (O96013 whole entry, looked up): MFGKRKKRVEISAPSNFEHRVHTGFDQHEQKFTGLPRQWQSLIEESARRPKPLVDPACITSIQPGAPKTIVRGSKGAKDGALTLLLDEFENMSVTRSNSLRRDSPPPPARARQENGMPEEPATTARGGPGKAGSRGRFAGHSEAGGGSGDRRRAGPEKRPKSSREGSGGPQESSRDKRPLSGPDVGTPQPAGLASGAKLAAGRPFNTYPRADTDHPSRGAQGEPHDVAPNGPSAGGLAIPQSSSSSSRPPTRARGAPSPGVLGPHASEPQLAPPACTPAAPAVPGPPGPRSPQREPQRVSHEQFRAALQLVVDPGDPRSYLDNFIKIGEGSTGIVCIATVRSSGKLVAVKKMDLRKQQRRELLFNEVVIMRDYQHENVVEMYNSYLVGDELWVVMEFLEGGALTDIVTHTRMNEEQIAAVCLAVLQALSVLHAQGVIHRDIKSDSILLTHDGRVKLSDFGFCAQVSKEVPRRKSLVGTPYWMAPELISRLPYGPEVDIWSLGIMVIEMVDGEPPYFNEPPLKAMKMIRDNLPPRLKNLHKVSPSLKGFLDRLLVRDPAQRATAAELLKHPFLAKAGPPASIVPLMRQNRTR
Sequence of AURKB (human) (Q96GD4 whole entry, looked up): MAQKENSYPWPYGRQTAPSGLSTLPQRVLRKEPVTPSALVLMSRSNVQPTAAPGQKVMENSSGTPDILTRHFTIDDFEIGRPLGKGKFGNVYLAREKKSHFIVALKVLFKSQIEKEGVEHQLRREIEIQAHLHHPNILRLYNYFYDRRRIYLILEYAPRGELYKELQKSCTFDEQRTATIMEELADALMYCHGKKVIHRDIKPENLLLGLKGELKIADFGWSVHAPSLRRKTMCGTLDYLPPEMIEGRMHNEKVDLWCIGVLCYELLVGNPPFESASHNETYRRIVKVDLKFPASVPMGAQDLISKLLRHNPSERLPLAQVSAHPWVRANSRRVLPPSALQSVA
Sequence of ACVR1 (human) (Q04771 whole entry, looked up): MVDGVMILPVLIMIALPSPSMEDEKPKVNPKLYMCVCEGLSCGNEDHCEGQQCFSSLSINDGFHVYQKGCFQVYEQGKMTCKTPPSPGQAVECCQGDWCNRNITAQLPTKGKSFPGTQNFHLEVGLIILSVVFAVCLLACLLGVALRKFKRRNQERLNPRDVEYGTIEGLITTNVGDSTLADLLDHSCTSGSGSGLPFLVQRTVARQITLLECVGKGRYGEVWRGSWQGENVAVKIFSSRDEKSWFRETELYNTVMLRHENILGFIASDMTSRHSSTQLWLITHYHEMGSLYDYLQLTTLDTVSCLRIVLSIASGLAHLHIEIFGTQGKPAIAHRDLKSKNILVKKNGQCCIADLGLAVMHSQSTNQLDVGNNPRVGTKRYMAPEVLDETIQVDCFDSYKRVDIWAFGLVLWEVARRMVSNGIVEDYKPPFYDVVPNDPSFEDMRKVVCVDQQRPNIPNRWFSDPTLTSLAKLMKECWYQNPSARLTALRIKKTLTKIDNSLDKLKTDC

With `COc1cc2ncn(-c3cc(OCc4ccccc4C(F)(F)F)c(C(N)=O)s3)c2cc1OC` as the molecule, how does the kinase still bound, per cent of control (BMPR1A (human)) read?
Its kinase still bound, per cent of control is 100%.

What about the kinase still bound, per cent of control (NUAK1 (human)) of the same molecule?
The kinase still bound, per cent of control was 21%.

And the kinase still bound, per cent of control (DMPK (human))?
The kinase still bound, per cent of control was 98%.

What about the kinase still bound, per cent of control (AURKB (human)) of the same molecule?
The kinase still bound, per cent of control was 34%.

What about the kinase still bound, per cent of control (ERBB3 (human)) of the same molecule?
Its kinase still bound, per cent of control is 100%.

And the kinase still bound, per cent of control (CDK5 (human))?
The kinase still bound, per cent of control was 100%.

And the kinase still bound, per cent of control (LATS2 (human))?
The kinase still bound, per cent of control was 50%.

What about the kinase still bound, per cent of control [1] of the same molecule?
Its kinase still bound, per cent of control is 100%.

And the kinase still bound, per cent of control (SIK1 (human))?
Its kinase still bound, per cent of control is 40%.

And the kinase still bound, per cent of control (INSR (human))?
Its kinase still bound, per cent of control is 84%.

And the kinase still bound, per cent of control (FGFR1 (human))?
The kinase still bound, per cent of control was 43%.

What about the kinase still bound, per cent of control (RIPK4 (human)) of the same molecule?
The kinase still bound, per cent of control was 100%.

What about the kinase still bound, per cent of control (MST4 (human)) of the same molecule?
Its kinase still bound, per cent of control is 85%.

And the kinase still bound, per cent of control (PLK4 (human))?
Its kinase still bound, per cent of control is 29%.

What about the kinase still bound, per cent of control (GAK (human)) of the same molecule?
Its kinase still bound, per cent of control is 4.1%.

And the kinase still bound, per cent of control (SGK3 (human))?
Its kinase still bound, per cent of control is 83%.

And the kinase still bound, per cent of control (PRKCE (human))?
The kinase still bound, per cent of control was 100%.

What about the kinase still bound, per cent of control (PAK4 (human)) of the same molecule?
The kinase still bound, per cent of control was 100%.

And the kinase still bound, per cent of control (GSK3B (human))?
The kinase still bound, per cent of control was 100%.

What about the kinase still bound, per cent of control (CAMKK2 (human)) of the same molecule?
The kinase still bound, per cent of control was 44%.

What about the kinase still bound, per cent of control (ACVR1 (human)) of the same molecule?
Its kinase still bound, per cent of control is 60%.

And the kinase still bound, per cent of control (PRKD3 (human))?
Its kinase still bound, per cent of control is 100%.

And the kinase still bound, per cent of control (PRKCH (human))?
Its kinase still bound, per cent of control is 100%.

What about the kinase still bound, per cent of control (MAP3K1 (human)) of the same molecule?
The kinase still bound, per cent of control was 1.6%.

And the kinase still bound, per cent of control (PIM1 (human))?
The kinase still bound, per cent of control was 89%.

And the kinase still bound, per cent of control (ACVR1B (human))?
Its kinase still bound, per cent of control is 76%.

What about the kinase still bound, per cent of control (MAP3K5 (human)) of the same molecule?
The kinase still bound, per cent of control was 87%.

What about the kinase still bound, per cent of control (AKT2 (human)) of the same molecule?
Its kinase still bound, per cent of control is 100%.

What about the kinase still bound, per cent of control (ALK (human)) of the same molecule?
Its kinase still bound, per cent of control is 100%.

And the kinase still bound, per cent of control (PAK3 (human))?
The kinase still bound, per cent of control was 77%.

What about the kinase still bound, per cent of control (CHUK (human)) of the same molecule?
The kinase still bound, per cent of control was 86%.

And the kinase still bound, per cent of control (DYRK1A (human))?
The kinase still bound, per cent of control was 75%.

What about the kinase still bound, per cent of control (ACVR2A (human)) of the same molecule?
Its kinase still bound, per cent of control is 79%.

What about the kinase still bound, per cent of control (RPS6KA2 KD1 (human)) of the same molecule?
The kinase still bound, per cent of control was 61%.

And the kinase still bound, per cent of control (TNIK (human))?
The kinase still bound, per cent of control was 32%.

What about the kinase still bound, per cent of control (HIPK3 (human)) of the same molecule?
The kinase still bound, per cent of control was 77%.

And the kinase still bound, per cent of control (PLK3 (human))?
The kinase still bound, per cent of control was 0%.
